In test [1] the test system is clinical strains of P. aeruginosa. The test can be described thus: microbe, parasite or virus in culture. Type of test: cell-based, Pseudomonas aeruginosa. The note with it: for MIC: Pseudomonas aeruginosa. As to the method: MICs (μg/ml, x-axis) for each compound are shown below each graph. […] The OD at 600 nm quantitates the extent of bacterial growth. Diamonds=L6K-F17; squares=tobramycin. Incubation: 37° C. for 19-24 hours.
Nine different clinical P. aeruginosa isolates were tested with a representative CAP, L-6KF17.

The test system of test [2] is clinically isolated P. aeruginosa mucoid strains. The test can be described thus: microbe, parasite or virus in culture. The note with it: Pseudomonas aeruginosa. As to the method: (§1) The clinically isolated P. aeruginosa mucoid strains that were used in these experiments are described in Table 1.
(§2) Methods: Prep Work—3 Days Culture the Clinical Mucoid P. aeruginosa Strains Isolated from CF Patients • 1. Freshly subculture the glycerol stock of the strain (stored at −80° C.) by streaking onto a blood agar (3˜4 streaks). Incubate the blood agar plate at 37° C. for 24 hr. The consistency of the mucoid phenotype can be improved by further subculturing (e.g., a total of 3 times, one/day). • 2. The following day, pick a few colonies and streak them onto a fresh blood agar. Note: Every time the cells are cultured using the stock strains (stored at −80° C.), they should be subcultured 3 times in total, and the last blood agar plate is then good for about one week. In the following week, the strains can be re-subcultured from the last agar plate to grow fresh colonies—this needs only to be done once (no need to do it 3 times). If the mucoid phenotype is lost, the glycerol stocks (−80° C.) should be used, and subcultured 3 times. Biofilm Assay—Day 1 Grow Overnight Cell Culture • 1. Inoculate freshly cultured cells (see prep work) in 10 mL TSB, and grow overnight at 37° C. on a shaker. […] Biofilm Assay—Day 2 Biofilm Set-up • 1. Make 0.5 McFarland for each strain/organism (add ˜100 μL O/N culture to 2 mL 50% TSB): • 0.5 McFarland=10^8 CFU/mL. • To calibrate a colourimeter/turbidity meter: • Positive blank: place a solid marker in the holder; turn the left knob to adjust to zero. • Negative blank: use a glass tube containing 50% TSB (1:1 TSB/H2O); adjust the right knob to 100% T. • Non-mucoid strains should be read in the lower ‘red zone’ on a colorimeter/turbidity meter. • Mucoid strains should be a bit heavier, and read in the mid ‘red zone’. • 2. Make bacterial inoculums: to a 50 mL falcon tube, add 300 μL of 0.5 McFarland to 19.7 mL of TSB. • 3. Mix the tube gently by inverting. • 4. In the biosafety fume hood or beside the flame: • Label a 96-well plate: strain and time. • Pour inoculum into a reservoir. • Using the multi-channel pipet, add 150 μL of inoculum into each well, leave the last column empty (last column=negative control, no cells). • Carefully place a peg lid onto the plate, match the cut corners. • 5. Place the plate on a shaker in 37° C. incubator (requires ≥3 h). Checking Biofilm Plate Growth • 1. Check plates periodically using a plate-reader to determine OD readings: • At OD650, aim for ˜0.045-0.050. • Depending on the strain, require 3-28 h to grow. […] Loading Antibiotic Plates • 1. Place the peg lid (containing biofilm growth) of the susceptibility plate into a pre-made 96-well antibiotic plate (see protocol from Day 1; see FIG. 1). Incubate at 37° C. for 24 h. * This will be referred to the planktonic growth plate, which measures the planktonic susceptibility in the biofilm assay, or MICs. * • 2. Place the lid of 96-well antibiotic plate onto the previous susceptibility plate, and keep in the fridge for reference until the experiment is completed. • 3. Proceed to perform inoculum check (see below) Inoculum Check • 1. Purity check: • Take a loopful of bacteria culture from any well of the susceptibility plate. • Spread onto half of a blood agar plate. • Place in the incubator at 37° C. for 24 h. • 2. Inoculum check: • In sterile Eppendorf tubes or liver vials (need 4 per strain), prepare the following dilutions: • a. 10^2: […] from any well of the susceptibility plate. • b. 10^3: 900 μL of H2O and 100 μL of mixture from Step (a). • c. 10^4: 900 μL of H2O and 100 μL of mixture from Step (b). • d. 10^5: 900 μL of H2O and 100 μL of mixture from Step (c). • Split blood agar plates into quadrants: two for 10^4 and two for 10^5. • Take 50 μL from Step (c) or Step (d) and place onto blood agar plates. • Let dry for about 30 min in the hood with the lid closed, and then incubate upside-down at 37° C. for 18˜24 h.

Test [3] relates to clinically isolated P. aeruginosa mucoid strains (biofilm). Briefly: Biofilm antibacterial susceptibility assay, biofilm recovery plate (BICs). Type of test: cell-based, Pseudomonas aeruginosa. As for the experimental part:
as §1, §2

In brackets after ≈: the same amount, converted by molar mass.

Turning to `NC[C@H]1O[C@H](O[C@H]2[C@H](O)[C@@H](O[C@H]3O[C@H](CO)[C@@H](O)[C@H](N)[C@H]3O)[C@H](N)C[C@@H]2N)[C@H](N)C[C@@H]1O` [Tobramycin, tobramycin], the MIC in test [1] (strain HSC 002B10-2) is 1 µg/mL (≈ 2.14 µM); in test [1] (strain HSC 004B1-3) it was 8 µg/mL (≈ 17.1 µM); in test [1] (strain HSC 007E3-2), 8 µg/mL (≈ 17.1 µM); in test [1] (strain HSC 035B7-1), over 32 µg/mL; in test [1] (strain SMH 064B15-2), 2 µg/mL (≈ 4.28 µM); in test [1] (strain SMH 072B5-2) it was over 32 µg/mL. Further, the MIC in test [1] (strain SMH 112B41) was 2 µg/mL (≈ 4.28 µM); in test [1] (strain SMH 130B12-1), 8 µg/mL (≈ 17.1 µM); in test [1] (strain SMH 154B10-2), 16 µg/mL (≈ 34.2 µM); in test [2] (strain HSC 003B3-1, planktonic), 2 to 8 µg/mL (≈ 4.28 to 17.1 µM); in test [2] (strain HSC 020B2-1, planktonic) it was 32 to 64 µg/mL (≈ 68.4 to 137 µM); in test [2] (strain HSC 027B2-3, planktonic) it was over 128 µg/mL. The MIC was at most 0.5 µg/mL in test [2] (strain SMH 022B5-2, planktonic); at most 0.5 µg/mL in test [2] (strain SMH 051B3-1, planktonic); at most 0.5 µg/mL in test [2] (strain SMH 123E1-1, planktonic). For the same compound, the BIC was 8 to 64 µg/mL in test [3] (strain HSC 003B3-1, biofilm); 128 µg/mL in test [3] (strain HSC 020B2-1, biofilm); over 128 µg/mL in test [3] (strain HSC 027B2-3, biofilm); at most 0.5 µg/mL in test [3] (strain SMH 022B5-2, biofilm); at most 0.5 µg/mL in test [3] (strain SMH 051B3-1, biofilm); 0.5 to 1 µg/mL in test [3] (strain SMH 123E1-1, biofilm).

Take `C[C@@H](O)[C@H]1C(=O)N2C(C(=O)O)=C(S[C@@H]3CN[C@H](C(=O)N(C)C)C3)[C@H](C)[C@H]12` [Meropenem, meropenem]: the MIC in test [2] (strain HSC 003B3-1, planktonic) is at most 0.5 µg/mL; in test [2] (strain HSC 020B2-1, planktonic) it was 1 to 2 µg/mL (≈ 2.61 to 5.22 µM); in test [2] (strain HSC 027B2-3, planktonic) it was 2 µg/mL (≈ 5.22 µM). In addition, the BIC in test [3] (strain HSC 003B3-1, biofilm) is at most 0.5 µg/mL; in test [3] (strain HSC 020B2-1, biofilm), 2 µg/mL; in test [3] (strain HSC 027B2-3, biofilm), 4 µg/mL.

`C[C@H](NC(=O)[C@H](C)NC(=O)[C@H](Cc1ccccc1)NC(=O)[C@H](C)NC(=O)[C@H](C)NC(=O)[C@H](Cc1c[nH]c2ccccc12)NC(=O)[C@H](C)NC(=O)[C@H](C)NC(=O)[C@H](Cc1ccccc1)NC(=O)[C@H](C)NC(=O)[C@H](C)NC(=O)[C@H](CCCCN)NC(=O)[C@H](CCCCN)NC(=O)[C@H](CCCCN)NC(=O)[C@H](CCCCN)NC(=O)[C@H](CCCCN)NC(=O)[C@@H](N)CCCCN)C(N)=O` [L-6KF17]: in test [1] (nine clinical P. aeruginosa isolates), the “MIC compared with tobramycin” value is recorded as “equal to or superior to tobramycin in most cases”.
